The target of the first test is T1, rat MCH1 receptor (Rattus norvegicus, UniProt P97639).
T1 construct: expressed in transfected cells
T1 sequence (P97639 whole entry): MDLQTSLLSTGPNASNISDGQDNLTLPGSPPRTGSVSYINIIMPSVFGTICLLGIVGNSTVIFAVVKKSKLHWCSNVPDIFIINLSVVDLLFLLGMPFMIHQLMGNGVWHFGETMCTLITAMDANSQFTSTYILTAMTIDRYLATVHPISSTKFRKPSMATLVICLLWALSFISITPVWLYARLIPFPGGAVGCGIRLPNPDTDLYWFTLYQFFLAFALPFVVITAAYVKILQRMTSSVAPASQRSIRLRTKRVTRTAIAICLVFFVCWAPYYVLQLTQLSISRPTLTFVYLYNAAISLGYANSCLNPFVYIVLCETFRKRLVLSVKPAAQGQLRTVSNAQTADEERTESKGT
Kind of test: Binding affinity (Ki) at the rat MCH1 receptor. As to conditions: Examples 38-141; read-out: Ki (nM) rMCH1.
T4 sequence (P14416 whole entry): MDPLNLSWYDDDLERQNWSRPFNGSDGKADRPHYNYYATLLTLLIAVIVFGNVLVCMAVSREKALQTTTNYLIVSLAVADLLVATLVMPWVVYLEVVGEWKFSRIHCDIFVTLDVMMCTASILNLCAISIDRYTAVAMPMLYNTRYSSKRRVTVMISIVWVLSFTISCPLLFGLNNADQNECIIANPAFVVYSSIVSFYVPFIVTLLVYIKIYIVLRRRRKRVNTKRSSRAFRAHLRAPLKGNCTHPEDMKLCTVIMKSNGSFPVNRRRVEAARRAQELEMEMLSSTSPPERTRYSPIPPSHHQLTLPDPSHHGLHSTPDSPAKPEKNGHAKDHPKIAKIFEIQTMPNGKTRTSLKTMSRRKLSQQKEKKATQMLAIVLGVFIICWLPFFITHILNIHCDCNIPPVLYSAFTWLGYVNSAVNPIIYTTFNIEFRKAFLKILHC
`CC(C)C(=O)Nc1cccc(C2CCN(CC[C@H](Oc3ccccc3F)c3ccccc3)CC2)c1` [Example 127]: the inhibitory constant (Ki) is 6.6 nM.
As to `CC(C)C(=O)Nc1cccc(C2CCN(CC[C@@H](Oc3cc(C(F)(F)F)ccc3F)c3ccccc3)CC2)c1` [Example 121], the Ki worked out at 17 nM.
On the same count and under the same terms, the value for `CC(C)C(=O)Nc1cccc(C2CCN(CCCCN3C(=O)c4ccccc4C3=O)CC2)c1` [Example 94] was 18.2 nM.
Turning to `CC(C)C(=O)Nc1cccc(C2CCN(CC[C@@H](Oc3cccc(Cl)c3)c3ccccc3)CC2)c1` [Example 124], the inhibitory constant (Ki) is 9.3 nM.
`CC(=O)c1cccc(O[C@@H](CCN2CCC(c3cccc(NC(=O)C(C)C)c3)CC2)c2ccccc2)c1` [Example 141]: the inhibition constant (Ki) turned out to be 3.2 nM.

Staying with this test, now noted: Table 3c; read-out: rMCH1 Ki.
For the compound `CC(C)C(=O)Nc1cccc(C2CCN(CC[C@H](Oc3ccccc3F)c3ccccc3)CC2)c1` [Example 127], the inhibition constant Ki is 6.6 nM.
As for `CC(C)C(=O)Nc1cccc(C2CCN(CC[C@@H](Oc3cc(C(F)(F)F)ccc3F)c3ccccc3)CC2)c1` [Example 121], the Ki came out at 17 nM.
Take `CC(C)C(=O)Nc1cccc(C2CCN(CCCCN3C(=O)c4ccccc4C3=O)CC2)c1` [Example 94]: the inhibition constant Ki was 18.2 nM.
Turning to `CC(C)C(=O)Nc1cccc(C2CCN(CC[C@@H](Oc3cccc(Cl)c3)c3ccccc3)CC2)c1` [Example 124], the inhibition constant Ki turned out to be 9.3 nM.
For the compound `CC(=O)c1cccc(O[C@@H](CCN2CCC(c3cccc(NC(=O)C(C)C)c3)CC2)c2ccccc2)c1` [Example 141], the Ki came to 3.2 nM.

The target in a further test is T2, human Histamine H1 receptor (Homo sapiens, UniProt P35367).
T2 construct: expressed in transfected cells
T2 sequence (P35367 whole entry): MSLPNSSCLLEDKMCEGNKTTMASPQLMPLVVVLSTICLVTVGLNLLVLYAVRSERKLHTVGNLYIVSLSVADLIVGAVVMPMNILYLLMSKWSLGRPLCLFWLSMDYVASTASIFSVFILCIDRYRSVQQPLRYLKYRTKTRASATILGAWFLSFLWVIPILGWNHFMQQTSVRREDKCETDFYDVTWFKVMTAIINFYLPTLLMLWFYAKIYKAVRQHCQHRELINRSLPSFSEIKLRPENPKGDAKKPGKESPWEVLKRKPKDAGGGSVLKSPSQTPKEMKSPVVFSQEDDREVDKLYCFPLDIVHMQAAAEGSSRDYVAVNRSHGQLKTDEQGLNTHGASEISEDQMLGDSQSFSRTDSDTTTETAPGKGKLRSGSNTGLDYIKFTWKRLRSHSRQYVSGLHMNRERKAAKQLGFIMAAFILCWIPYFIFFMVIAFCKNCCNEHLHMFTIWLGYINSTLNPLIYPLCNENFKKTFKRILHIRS
Briefly: Binding affinity at the human histamine H1 receptor. The following applies: Table 3c; read-out: hH1 Ki. An outline of the steps: (§1)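 Receptor binding read-out throughout; membranes expressing human D1 or D2 receptor were used for those two targets.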
Regarding `CC(C)C(=O)Nc1cccc(C2CCN(CC[C@H](Oc3ccccc3F)c3ccccc3)CC2)c1` [Example 127], the Ki was 1710 nM.
The same measure, in the same setting: to `CC(C)C(=O)Nc1cccc(C2CCN(CC[C@@H](Oc3cc(C(F)(F)F)ccc3F)c3ccccc3)CC2)c1` [Example 121] belongs 9390 nM; to `CC(C)C(=O)Nc1cccc(C2CCN(CCCCN3C(=O)c4ccccc4C3=O)CC2)c1` [Example 94], 6590 nM; to `CC(C)C(=O)Nc1cccc(C2CCN(CC[C@@H](Oc3cccc(Cl)c3)c3ccccc3)CC2)c1` [Example 124], 329 nM.
Same read-out and setting: the value for `CC(=O)c1cccc(O[C@@H](CCN2CCC(c3cccc(NC(=O)C(C)C)c3)CC2)c2ccccc2)c1` [Example 141] was 3820 nM.

In the next test the target is T3, human Alpha-1a Adrenergic receptor (Homo sapiens, UniProt P35348).
T3 construct: expressed in transfected cells
T3 sequence (P35348 1-466): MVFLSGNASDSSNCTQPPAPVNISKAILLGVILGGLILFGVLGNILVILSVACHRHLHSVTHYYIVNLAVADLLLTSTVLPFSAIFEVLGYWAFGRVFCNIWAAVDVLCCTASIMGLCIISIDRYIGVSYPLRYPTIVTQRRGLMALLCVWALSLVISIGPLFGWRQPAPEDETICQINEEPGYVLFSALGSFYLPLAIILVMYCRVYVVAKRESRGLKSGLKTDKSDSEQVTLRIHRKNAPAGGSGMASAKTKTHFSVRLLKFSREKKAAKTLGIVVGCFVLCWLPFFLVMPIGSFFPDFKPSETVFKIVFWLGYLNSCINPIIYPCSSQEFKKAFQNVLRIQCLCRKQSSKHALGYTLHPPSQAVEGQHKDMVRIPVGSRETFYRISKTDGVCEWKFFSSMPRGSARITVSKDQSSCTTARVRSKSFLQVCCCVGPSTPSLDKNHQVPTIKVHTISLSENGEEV
Kind of test: Binding affinity at the human alpha-1A adrenergic receptor. As to conditions: Table 3c; read-out: hAlpha-1a Ki. An outline of the steps:
as §1
As to `CC(C)C(=O)Nc1cccc(C2CCN(CC[C@H](Oc3ccccc3F)c3ccccc3)CC2)c1` [Example 127], the Ki was determined as 226 nM.
Same read-out and setting: the value for `CC(C)C(=O)Nc1cccc(C2CCN(CC[C@@H](Oc3cc(C(F)(F)F)ccc3F)c3ccccc3)CC2)c1` [Example 121] was 1720 nM; that for `CC(C)C(=O)Nc1cccc(C2CCN(CCCCN3C(=O)c4ccccc4C3=O)CC2)c1` [Example 94] was 1590 nM; that for `CC(C)C(=O)Nc1cccc(C2CCN(CC[C@@H](Oc3cccc(Cl)c3)c3ccccc3)CC2)c1` [Example 124] was 204 nM.
For `CC(=O)c1cccc(O[C@@H](CCN2CCC(c3cccc(NC(=O)C(C)C)c3)CC2)c2ccccc2)c1` [Example 141], the inhibition constant (Ki) is 3020 nM.

A further test addresses T4, human Dopamine D2 receptor (Homo sapiens, UniProt P14416).
T4 construct: purchased BioSignal, Inc. (Montreal, Canada)
Briefly: Binding affinity at the human dopamine D2 receptor. The following applies: Table 3c; read-out: hD2 Ki. In outline: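 D5 receptor binding is run per one prior patent's protocol, while dopamine and α2 adrenergic binding follow another; human D1 and D2 receptors were supplied as expressing cell membranes.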
Take `CC(C)C(=O)Nc1cccc(C2CCN(CC[C@H](Oc3ccccc3F)c3ccccc3)CC2)c1` [Example 127]: the Ki was found to be 119 nM.
Consider `CC(C)C(=O)Nc1cccc(C2CCN(CC[C@@H](Oc3cc(C(F)(F)F)ccc3F)c3ccccc3)CC2)c1` [Example 121], for which the Ki is 331 nM.
On the same count and under the same terms, the value for `CC(C)C(=O)Nc1cccc(C2CCN(CCCCN3C(=O)c4ccccc4C3=O)CC2)c1` [Example 94] was greater than 50000 nM.
The same measure, in the same setting: the value for `CC(C)C(=O)Nc1cccc(C2CCN(CC[C@@H](Oc3cccc(Cl)c3)c3ccccc3)CC2)c1` [Example 124] was 66 nM; that for `CC(=O)c1cccc(O[C@@H](CCN2CCC(c3cccc(NC(=O)C(C)C)c3)CC2)c2ccccc2)c1` [Example 141] was 2450 nM.

These data come from US20040038855A1 (priority 1999, published 2004).
